Source: the supplement of paper PMC10883282

Experiments:
Test in all cases: relative viability vs DMSO control (72 h) (fraction); higher = more viable cells
[1] = test system: SYO-1
How it was run: (§1)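 Sarcoma cell lines were plated in 384 wells to reach 80–90% confluence, treated after 24 h with 2.5 µl of serially diluted compound and held 72 h at 37 °C, 5% CO2. Relative viability was taken as percent growth from ATPLite readings, averaged over up to triplicate wells. The values were rescaled so that 1 marks full and 0 marks none.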

[2] = test system: HT1080
How it was run: as §1

[3] = test system: KHOS-NP
How it was run: as §1

[4] = test system: VA-ES-BJ
How it was run: as §1

[5] = test system: SK-LMS-1
How it was run: as §1

[6] = test system: A204
How it was run: as §1

[7] = test system: HS729
How it was run: as §1

[8] = test system: SW684
How it was run: as §1

[9] = test system: SW872
How it was run: as §1

[10] = test system: SW1353
How it was run: as §1

[11] = test system: MES-SA
How it was run: as §1

[12] = test system: G401
How it was run: as §1

CCN1CCN(c2ccc(Nc3cc(N(C)C(=O)Nc4c(Cl)c(OC)cc(OC)c4Cl)ncn3)cc2)CC1 [Infigratinib]
Conditions	relative viability
[1], 85 pM	1.02
[1], 0.000254 µM	0.973
[1], 0.00076 µM	0.975
[1], 0.00229 µM	0.901
[1], 0.00686 µM	0.827
[1], 0.02058 µM	0.655
[1], 0.0617 µM	0.626
[1], 0.1852 µM	0.63
[1], 0.5556 µM	0.596
[1], 1.6667 µM	0.623
[1], 5 µM	0.606
[2], 85 pM	1.03
[2], 0.000254 µM	1.07
[2], 0.00076 µM	1.072
[2], 0.00229 µM	1.04
[2], 0.00686 µM	1.053
[2], 0.02058 µM	1.067
[2], 0.0617 µM	1.04
[2], 0.1852 µM	1.06
[2], 0.5556 µM	1.087
[2], 1.6667 µM	1.11
[2], 5 µM	1.01
[3], 85 pM	1.07
[3], 0.000254 µM	1.12
[3], 0.00076 µM	1.09
[3], 0.00229 µM	1.06
[3], 0.00686 µM	1.08
[3], 0.02058 µM	1.085
[3], 0.0617 µM	1.08
[3], 0.1852 µM	1.05
[3], 0.5556 µM	1.06
[3], 1.6667 µM	1.08
[3], 5 µM	1.08
[4], 85 pM	1.03
[4], 0.000254 µM	1.048
[4], 0.00076 µM	1.03
[4], 0.00229 µM	1.04
[4], 0.00686 µM	1.04
[4], 0.02058 µM	0.977
[4], 0.0617 µM	1.01
[4], 0.1852 µM	0.982
[4], 0.5556 µM	0.949
[4], 1.6667 µM	0.8949
[4], 5 µM	0.871
[5], 85 pM	1.12
[5], 0.000254 µM	1.11
[5], 0.00076 µM	1.08
[5], 0.00229 µM	1.13
[5], 0.00686 µM	1.1
[5], 0.02058 µM	1.06
[5], 0.0617 µM	1.08
[5], 0.1852 µM	1.11
[5], 0.5556 µM	1.08
[5], 1.6667 µM	1.04
[5], 5 µM	0.952
[6], 85 pM	1.08
[6], 0.000254 µM	1.08
[6], 0.00076 µM	1.08
[6], 0.00229 µM	1.05
[6], 0.00686 µM	0.964
[6], 0.02058 µM	0.825
[6], 0.0617 µM	0.676
[6], 0.1852 µM	0.569
[6], 0.5556 µM	0.559
[6], 1.6667 µM	0.527
[6], 5 µM	0.408
[7], 85 pM	1.01
[7], 0.000254 µM	0.934
[7], 0.00076 µM	0.942
[7], 0.00229 µM	0.913
[7], 0.00686 µM	0.866
[7], 0.02058 µM	0.788
[7], 0.0617 µM	0.69
[7], 0.1852 µM	0.635
[7], 0.5556 µM	0.604
[7], 1.6667 µM	0.526
[7], 5 µM	0.525
[8], 85 pM	1.18
[8], 0.000254 µM	1.19
[8], 0.00076 µM	1.19
[8], 0.00229 µM	1.14
[8], 0.00686 µM	1.18
[8], 0.02058 µM	1.18
[8], 0.0617 µM	1.16
[8], 0.1852 µM	1.17
[8], 0.5556 µM	1.15
[8], 1.6667 µM	1.22
[8], 5 µM	1.14
[9], 85 pM	1.09
[9], 0.000254 µM	1.097
[9], 0.00076 µM	1.09
[9], 0.00229 µM	1.06
[9], 0.00686 µM	1.03
[9], 0.02058 µM	1.03
[9], 0.0617 µM	1.06
[9], 0.1852 µM	1.04
[9], 0.5556 µM	1.01
[9], 1.6667 µM	0.882
[9], 5 µM	0.839
[10], 85 pM	1.06
[10], 0.000254 µM	1.069
[10], 0.00076 µM	1.04
[10], 0.00229 µM	1.01
[10], 0.00686 µM	0.98
[10], 0.02058 µM	0.914
[10], 0.0617 µM	0.861
[10], 0.1852 µM	0.861
[10], 0.5556 µM	0.861
[10], 1.6667 µM	0.8437
[10], 5 µM	0.741
[11], 85 pM	0.933
[11], 0.000254 µM	0.94
[11], 0.00076 µM	0.927
[11], 0.00229 µM	0.928
[11], 0.00686 µM	0.929
[11], 0.02058 µM	0.869
[11], 0.0617 µM	0.846
[11], 0.1852 µM	0.733
[11], 0.5556 µM	0.696
[11], 1.6667 µM	0.556
[11], 5 µM	0.412
[12], 85 pM	1.048
[12], 0.000254 µM	1.039
[12], 0.00076 µM	1.02
[12], 0.00229 µM	0.9703
[12], 0.00686 µM	0.952
[12], 0.02058 µM	0.8266
[12], 0.0617 µM	0.749
[12], 0.1852 µM	0.649
[12], 0.5556 µM	0.59
[12], 1.6667 µM	0.515
[12], 5 µM	0.33

CN(C)CCCOc1ccc(-c2ccc3ncc4c(c3c2)n(C2CCOCC2)c(=O)n4C)cn1 [AZD-0156]
Conditions	relative viability
[1], 0.00017 µM	1
[1], 0.00051 µM	1.01
[1], 0.00152 µM	0.983
[1], 0.00457 µM	0.949
[1], 0.01372 µM	0.869
[1], 0.04115 µM	0.891
[1], 0.1235 µM	0.737
[1], 0.3704 µM	0.701
[1], 1.111 µM	0.534
[1], 3.333 µM	0.526
[1], 10 µM	0.259
[2], 0.00017 µM	1.04
[2], 0.00051 µM	1.1
[2], 0.00152 µM	1.091
[2], 0.00457 µM	1.12
[2], 0.01372 µM	1.09
[2], 0.04115 µM	1.09
[2], 0.1235 µM	1.07
[2], 0.3704 µM	1.06
[2], 1.111 µM	1.09
[2], 3.333 µM	1.11
[2], 10 µM	1.026
[3], 0.00017 µM	1.1
[3], 0.00051 µM	1.107
[3], 0.00152 µM	1.09
[3], 0.00457 µM	1.1
[3], 0.01372 µM	1.09
[3], 0.04115 µM	1.088
[3], 0.1235 µM	1.11
[3], 0.3704 µM	1.09
[3], 1.111 µM	1.03
[3], 3.333 µM	1.02
[3], 10 µM	0.764
[4], 0.00017 µM	1.118
[4], 0.00051 µM	1.11
[4], 0.00152 µM	1.09
[4], 0.00457 µM	1.09
[4], 0.01372 µM	1.04
[4], 0.04115 µM	0.949
[4], 0.1235 µM	0.81
[4], 0.3704 µM	0.674
[4], 1.111 µM	0.462
[4], 3.333 µM	0.453
[4], 10 µM	0.348
[5], 0.00017 µM	0.969
[5], 0.00051 µM	1.01
[5], 0.00152 µM	0.962
[5], 0.00457 µM	0.976
[5], 0.01372 µM	0.891
[5], 0.04115 µM	0.881
[5], 0.1235 µM	0.7368
[5], 0.3704 µM	0.743
[5], 1.111 µM	0.665
[5], 3.333 µM	0.7995
[5], 10 µM	0.674
[6], 0.00017 µM	1.08
[6], 0.00051 µM	1.1
[6], 0.00152 µM	1.07
[6], 0.00457 µM	1.1
[6], 0.01372 µM	1.04
[6], 0.04115 µM	1.01
[6], 0.1235 µM	0.919
[6], 0.3704 µM	0.84
[6], 1.111 µM	0.704
[6], 3.333 µM	0.766
[6], 10 µM	0.628
[7], 0.00017 µM	1
[7], 0.00051 µM	1.02
[7], 0.00152 µM	1.01
[7], 0.00457 µM	0.968
[7], 0.01372 µM	0.937
[7], 0.04115 µM	0.9191
[7], 0.1235 µM	0.857
[7], 0.3704 µM	0.833
[7], 1.111 µM	0.766
[7], 3.333 µM	0.758
[7], 10 µM	0.519
[8], 0.00017 µM	1.16
[8], 0.00051 µM	1.17
[8], 0.00152 µM	1.17
[8], 0.00457 µM	1.19
[8], 0.01372 µM	1.13
[8], 0.04115 µM	1.16
[8], 0.1235 µM	0.994
[8], 0.3704 µM	0.963
[8], 1.111 µM	0.835
[8], 3.333 µM	0.918
[8], 10 µM	0.788
[9], 0.00017 µM	1.06
[9], 0.00051 µM	1.05
[9], 0.00152 µM	1.06
[9], 0.00457 µM	1.03
[9], 0.01372 µM	0.941
[9], 0.04115 µM	0.892
[9], 0.1235 µM	0.808
[9], 0.3704 µM	0.654
[9], 1.111 µM	0.476
[9], 3.333 µM	0.398
[9], 10 µM	0.26
[10], 0.00017 µM	1.1
[10], 0.00051 µM	1.07
[10], 0.00152 µM	1.05
[10], 0.00457 µM	1.07
[10], 0.01372 µM	1.01
[10], 0.04115 µM	1.02
[10], 0.1235 µM	0.97
[10], 0.3704 µM	0.951
[10], 1.111 µM	0.883
[10], 3.333 µM	0.949
[10], 10 µM	0.865
[11], 0.00017 µM	1.023
[11], 0.00051 µM	1.02
[11], 0.00152 µM	0.955
[11], 0.00457 µM	1.02
[11], 0.01372 µM	0.935
[11], 0.04115 µM	0.97
[11], 0.1235 µM	0.901
[11], 0.3704 µM	0.813
[11], 1.111 µM	0.716
[11], 3.333 µM	0.848
[11], 10 µM	0.654
[12], 0.00017 µM	1.08
[12], 0.00051 µM	1.06
[12], 0.00152 µM	1.06
[12], 0.00457 µM	1.05
[12], 0.01372 µM	1.06
[12], 0.04115 µM	1.05
[12], 0.1235 µM	1.03
[12], 0.3704 µM	1.01
[12], 1.111 µM	0.968
[12], 3.333 µM	1.01
[12], 10 µM	0.9515
